#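 48-hour exposure; five concentrations; linearly interpolated endpoints. GI50 marks 50% less growth.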 The source made the active and inactive calls. No stated cut-off is given here; in the data, active = GI50 up to about 1.1 µM and inactive = higher.
# Columns and labels:
# Experiment in all cases: NCI-60 cell line screen, 48 h
# SN12C = system: SN12C
# HCC 2998 = system: HCC 2998
# T47D = system: T47D
# K562 = system: K562
# NCI-H460 = system: NCI-H460
# TK-10 = system: TK-10
# IGROV-1 = system: IGROV-1
# HL-60 = system: HL-60
# SF-295 = system: SF-295
# MCF7 = system: MCF7
# U-251 = system: U-251
# OVCAR-4 = system: OVCAR-4
# OVCAR-3 = system: OVCAR-3
# NCI-H23 = system: NCI-H23
# MDA-N = system: MDA-N
# 786-0 = system: 786-0
# OVCAR-5 = system: OVCAR-5
# ACHN = system: ACHN
# SK-OV-3 = system: SK-OV-3
# RPMI-8226 = system: RPMI-8226
# PC-3 = system: PC-3
# HCT-15 = system: HCT-15
# LOX IMVI = system: LOX IMVI
# MOLT-4 = system: MOLT-4
# Hs-578T = system: Hs-578T
# RXF 393 = system: RXF 393
# NCI-H226 = system: NCI-H226
# BT-549 = system: BT-549
# HT-29 = system: HT-29
# NCI/ADR-RES = system: NCI/ADR-RES
# UO-31 = system: UO-31
# HCT-116 = system: HCT-116
# SK-MEL-5 = system: SK-MEL-5
# A549 = system: A549
# DU-145 = system: DU-145
# M14 = system: M14
# SF-268 = system: SF-268
# MDA-MB-435 = system: MDA-MB-435
# HOP-62 = system: HOP-62
# EKVX = system: EKVX
# SF-539 = system: SF-539
# SK-MEL-2 = system: SK-MEL-2
# COLO 205 = system: COLO 205
# CCRF-CEM = system: CCRF-CEM
# SNB-19 = system: SNB-19
# KM12 = system: KM12
# HOP-92 = system: HOP-92
# UACC-62 = system: UACC-62
# MDA-MB-231 = system: MDA-MB-231
# CAKI-1 = system: CAKI-1
# SW-620 = system: SW-620
# UACC-257 = system: UACC-257
# SNB-75 = system: SNB-75
# NCI-H522 = system: NCI-H522
# OVCAR-8 = system: OVCAR-8
# SR = system: SR
# A498 = system: A498
# SK-MEL-28 = system: SK-MEL-28
# Malme-3M = system: Malme-3M
smiles,measurement,setting,value
CCCCCCCCNC(=O)C1=C(C)NC(C)=C(C(=O)NCCCCCCCC)C1,GI50,SN12C,> 100 µM (inactive)
same,GI50,HCC 2998,> 100 µM (inactive)
same,GI50,T47D,48.2 µM (inactive)
same,GI50,K562,> 100 µM (inactive)
same,GI50,NCI-H460,> 100 µM (inactive)
same,GI50,TK-10,> 100 µM (inactive)
same,GI50,IGROV-1,> 100 µM (inactive)
same,GI50,HL-60,> 100 µM (inactive)
same,GI50,SF-295,> 100 µM (inactive)
same,GI50,MCF7,> 100 µM (inactive)
same,GI50,U-251,94.4 µM (inactive)
same,GI50,OVCAR-4,> 100 µM (inactive)
same,GI50,OVCAR-3,> 100 µM (inactive)
same,GI50,NCI-H23,> 100 µM (inactive)
same,GI50,MDA-N,89.5 µM (inactive)
same,GI50,786-0,> 100 µM (inactive)
same,GI50,OVCAR-5,> 100 µM (inactive)
same,GI50,ACHN,92.7 µM (inactive)
same,GI50,SK-OV-3,> 100 µM (inactive)
same,GI50,RPMI-8226,71 µM (inactive)
same,GI50,PC-3,80 µM (inactive)
same,GI50,HCT-15,> 100 µM
same,GI50,LOX IMVI,> 100 µM (inactive)
same,GI50,MOLT-4,> 100 µM (inactive)
same,GI50,Hs-578T,> 100 µM (inactive)
same,GI50,RXF 393,> 100 µM (inactive)
same,GI50,NCI-H226,> 100 µM (inactive)
same,GI50,BT-549,> 100 µM (inactive)
same,GI50,HT-29,82.8 µM (inactive)
same,GI50,NCI/ADR-RES,> 100 µM (inactive)
same,GI50,UO-31,77.6 µM (inactive)
same,GI50,HCT-116,> 100 µM (inactive)
same,GI50,SK-MEL-5,> 100 µM (inactive)
same,GI50,A549,> 100 µM (inactive)
same,GI50,DU-145,> 100 µM (inactive)
same,GI50,M14,> 100 µM (inactive)
same,GI50,SF-268,> 100 µM (inactive)
same,GI50,MDA-MB-435,44.8 µM (inactive)
same,GI50,HOP-62,> 100 µM (inactive)
same,GI50,EKVX,> 100 µM (inactive)
same,GI50,SF-539,> 100 µM (inactive)
same,GI50,SK-MEL-2,> 100 µM (inactive)
same,GI50,COLO 205,> 100 µM (inactive)
same,GI50,CCRF-CEM,39.6 µM (inactive)
same,GI50,SNB-19,> 100 µM (inactive)
same,GI50,KM12,> 100 µM (inactive)
same,GI50,HOP-92,> 100 µM (inactive)
same,GI50,UACC-62,> 100 µM (inactive)
same,GI50,MDA-MB-231,69.3 µM (inactive)
same,GI50,CAKI-1,> 100 µM (inactive)
same,GI50,SW-620,> 100 µM (inactive)
same,GI50,UACC-257,> 100 µM (inactive)
same,GI50,SNB-75,23.2 µM (inactive)
same,GI50,NCI-H522,> 100 µM (inactive)
same,GI50,OVCAR-8,> 100 µM (inactive)
CCN(CC)C(=S)SS(=O)(=O)c1ccccc1[N+](=O)[O-],GI50,SN12C,22 µM (inactive)
same,GI50,HCC 2998,> 49.2 µM (inactive)
same,GI50,T47D,28.1 µM (inactive)
same,GI50,K562,11.7 µM (inactive)
same,GI50,SR,0.359 µM (active)
same,GI50,NCI-H460,25.1 µM (inactive)
same,GI50,A498,> 56.6 µM (inactive)
same,GI50,TK-10,31.9 µM (inactive)
same,GI50,IGROV-1,0.504 µM (active)
same,GI50,SK-MEL-28,18.7 µM (inactive)
same,GI50,HL-60,2.47 µM (inactive)
same,GI50,SF-295,31.8 µM (inactive)
same,GI50,U-251,21.7 µM (inactive)
same,GI50,OVCAR-4,44.3 µM (inactive)
same,GI50,OVCAR-3,22.2 µM (inactive)
same,GI50,NCI-H23,> 54 µM (inactive)
same,GI50,MDA-N,38.9 µM (inactive)
same,GI50,786-0,18.6 µM (inactive)
same,GI50,OVCAR-5,> 50.4 µM (inactive)
same,GI50,ACHN,43.8 µM (inactive)
same,GI50,SK-OV-3,> 71.4 µM (inactive)
same,GI50,RPMI-8226,15.2 µM (inactive)
same,GI50,PC-3,54.5 µM (inactive)
same,GI50,HCT-15,57.9 µM
same,GI50,LOX IMVI,17.3 µM (inactive)
same,GI50,MOLT-4,0.415 µM (active)
same,GI50,Hs-578T,31.1 µM (inactive)
same,GI50,RXF 393,20.8 µM (inactive)
same,GI50,NCI-H226,> 60 µM (inactive)
same,GI50,BT-549,> 51.2 µM (inactive)
same,GI50,HT-29,16.9 µM (inactive)
same,GI50,NCI/ADR-RES,41.3 µM (inactive)
same,GI50,UO-31,14.5 µM (inactive)
same,GI50,HCT-116,18.2 µM (inactive)
same,GI50,SK-MEL-5,5.83 µM (inactive)
same,GI50,A549,14.7 µM (inactive)
same,GI50,DU-145,27.3 µM (inactive)
same,GI50,Malme-3M,10.2 µM (inactive)
same,GI50,M14,25 µM (inactive)
same,GI50,SF-268,30.7 µM (inactive)
same,GI50,MDA-MB-435,21.7 µM (inactive)
same,GI50,HOP-62,22 µM (inactive)
same,GI50,EKVX,> 100 µM (inactive)
same,GI50,SF-539,19.9 µM (inactive)
same,GI50,SK-MEL-2,> 76.7 µM (inactive)
same,GI50,COLO 205,> 53.5 µM (inactive)
same,GI50,CCRF-CEM,2.51 µM (inactive)
same,GI50,SNB-19,> 53.7 µM (inactive)
same,GI50,KM12,> 35.4 µM (inactive)
same,GI50,HOP-92,24 µM (inactive)
same,GI50,UACC-62,35 µM (inactive)
same,GI50,MDA-MB-231,18.1 µM (inactive)
same,GI50,CAKI-1,22.3 µM (inactive)
same,GI50,SW-620,20.9 µM (inactive)
same,GI50,UACC-257,36.8 µM (inactive)
same,GI50,SNB-75,76.2 µM (inactive)
same,GI50,NCI-H522,0.404 µM (active)
same,GI50,OVCAR-8,22.9 µM (inactive)

# From ChEMBL document CHEMBL1201862, “PubChem BioAssay data set” (2004)
